Results: US11613538B2, “Method of inhibiting or reducing a viral infection” (PTC Therapeutics, Inc., priority 2009, dated 2023)
Values after ≈ are worked out from the molar mass of the structure shown. Marks after values point to notes of the source that are not given here.

What was measured:
[1] = Plasma trough levels in patients having a variety of cancers; assay type: in vivo, human; conditions: combination therapy with Compound #10; in words
[2] = test system: hypoxia-induced VEGF production in HeLa cells; experiment: cells; assay type: cell-based, human
human VEGF = experiment: Intra-tumor and plasma human VEGF in HT1080 xenograft mice (ELISA); assay type: in vivo; conditions: for Mean difference in human plasma VEGF (%) on Day 14 / Mean difference in human tumor VEGF (%) at Day 14: 14 days
Text: Human HT1080 cells (5×10^6 cells/mice) were implanted subcutaneously into male athymic nude mice. Human HT1080 cells constitutively produce human VEGF. Treatment with vehicle alone or Compound 1205 was initiated when the median tumor volume was approximately 311±88 mm^3. Table 3 and Table 4 provide the study design for assessing tumor and pathological plasma VEGF concentrations—each group in each study included eight (8) mice. When the tumors in vehicle-treated mice had reached the target size of about 1200 mm^3 for study #21 and about 1500 mm^3 for study #23, all mice in the study were sacrificed, and excised tumors were homogenized in buffer containing protease inhibitors. Both intra-tumor and plasma human VEGF levels were measured using an ELISA that recognizes human VEGF121 and VEGF165. Intra-tumor VEGF levels were normalized to the total tumor protein concentration and plasma VEGF levels were expressed in pg/mL. Because smaller tumors produce less VEGF per mg of tumor protein, intra-tumor VEGF levels were normalized to tumor size.

HT1080 xenografts = experiment: HT1080 xenograft tumor growth in male athymic nude mice; assay type: in vivo
Text: Experimental Design. HT1080 cells (5×10^6 cells/mouse) were implanted subcutaneously in male athymic nude mice. […] For comparison, Compound #10 was included in this study.

HT1080 cells = experiment: Cell cycle analysis of HT1080 cells (propidium iodide, flow cytometry); assay type: cell-based, human; conditions: 10 nM, 18 hours, normoxic conditions; in words
Protocol: During the in vitro evaluation of Compound 1205 effects on VEGF expression, an examination of its actions on tumor cell cycling was performed. HT1080 cells were incubated under normoxic conditions (21% oxygen) for 18 hours with vehicle (0.5% DMSO) alone, or with 10 nM of Compound 1205. After treatment, cells were trypsinized, and stained with propidium iodide (PI) dye to measure DNA content of individual cells by flow cytometry. Output comprised histograms showing relative DNA content in 10,000 cells.

murine kidney VEGF = experiment: Mouse kidney VEGF levels in tumor-bearing mice; assay type: in vivo; conditions: 0.5 mg/kg (28 days) or 3 mg/kg (32 days); in words
Protocol: After mouse tumors reached 1500 mm^3, mice were sacrificed and tissues were collected at the time of necropsy, homogenized, and analyzed. On average, mice treated with Compound 1205 at 0.5 mg/kg were on study for 28 days, and mice treated with Compound 1205 at 3 mg/kg were on study for 32 days.

[3] = Bioavailability in vivo of aqueous suspension; conditions: in words
Text: It is anticipated that Compound 1205 can be clinically administered via a solid-dosage form. For all the studies outlined herein, Compound 1205 was lyophilized prior to formulation to minimize batch-to-batch variations in particle-size.

CC(=O)O[C@@]12CO[C@@H]1C[C@H](O)[C@@]1(C)C(=O)[C@H](O)C3=C(C)[C@@H](OC(=O)[C@H](O)[C@@H](NC(=O)OC(C)(C)C)c4ccccc4)C[C@@](O)([C@@H](OC(=O)c4ccccc4)[C@H]21)C3(C)C [docetaxel]
PK profile (FIG. 18) [1]: consistent with historical data

O=C(Oc1ccc(Cl)cc1)N1CCc2c([nH]c3ccc(Cl)cc23)[C@@H]1c1ccc(OCC[C@H](O)CO)cc1 [Compound 1205]
Inhibition of stress-induced VEGF production (FIG. 1) [2]: inhibit stress-induced VEGF production | EC50 ([2]; Homo sapiens, HeLa): < 8 nM | Inhibition of plasma VEGF levels (human VEGF; 0.5 or 3 mg/kg QD): more than 95% | Inhibition of tumor VEGF levels (human VEGF; 0.5 or 3 mg/kg QD): more than 95% | Mean difference in human plasma VEGF (%) on Day 14 (human VEGF; Study #21, 0.5 mg/kg QD): 97%** | Mean difference in human tumor VEGF (%) at Day 14 (human VEGF; Study #21, 0.5 mg/kg QD): 95%** | Mean difference in human plasma VEGF (%) on Day 14 (human VEGF; Study #21, 3 mg/kg QD): 99% | Mean difference in human tumor VEGF (%) at Day 14 (human VEGF; Study #21, 3 mg/kg QD): 98%** | Mean difference in human plasma VEGF (%) on Day 14 (human VEGF; Study #23, 1 mg/kg QD): 100%** | Mean difference in human tumor VEGF (%) at Day 14 (human VEGF; Study #23, 1 mg/kg QD): 95** % | Volume normalized intra-tumor VEGF levels (human VEGF; treated groups vs vehicle, in words): significantly reduced | Lowest dose at which active (HT1080 xenografts; HT1080 xenograft): ≤ 0.3 mg/kg | Mean difference in tumor growth rate at the Day that the vehicle-treated tumors taken off study (%) (HT1080 xenografts; Study 21, 0.5 mg/kg QD, Day 14): 61%** | Final mean terminal tumor size in treatment group (mm^3) (HT1080 xenografts; Study 21, 0.5 mg/kg QD, administered 14 days): 580 mm^3 | Mean difference in tumor growth rate at the Day that the vehicle-treated tumors taken off study (%) (HT1080 xenografts; Study 21, 3 mg/kg QD, Day 14): 80%** | Final mean terminal tumor size in treatment group (mm^3) (HT1080 xenografts; Study 21, 3 mg/kg QD, administered 14 days): 379 mm^3 | Difference vs. vehicle in median number of days to reach 1000 mm^3, (HT1080 xenografts; Study 22, 0.5 mg/kg QD): 11 days | Mean difference in tumor growth rate at the Day that the vehicle-treated tumors taken off study (%) (HT1080 xenografts; Study 22, 0.5 mg/kg QD, Day 11): 62%** | Final mean terminal tumor size in treatment group (mm^3) (HT1080 xenografts; Study 22, 0.5 mg/kg QD, administered 28 days): 1750 mm^3 | Difference vs. vehicle in median number of days to reach 1000 mm^3, (Days) (HT1080 xenografts; Study 22, 3 mg/kg QD): 14** Days | Mean difference in tumor growth rate at the Day that the vehicle-treated tumors taken off study (%) (HT1080 xenografts; Study 22, 3 mg/kg QD, Day 11): 75%** | Final mean terminal tumor size in treatment group (mm^3) (HT1080 xenografts; Study 22, 3 mg/kg QD, administered 32 days): 1840 mm^3 | Mean difference in tumor growth rate at the Day that the vehicle-treated tumors taken off study (%) (HT1080 xenografts; Study 23, 1 mg/kg QD, Day 14): 59%** | Final mean terminal tumor size in treatment group (mm^3) (HT1080 xenografts; Study 23, 1 mg/kg QD, administered 14 days): 710 mm^3 | Difference vs. vehicle in median number of days to reach 1000 mm^3, (Days) (HT1080 xenografts; Study 24a, 10 mg/kg QD, Compound 1205 column): 14** Days | Mean difference in tumor growth rate at the Day that the vehicle-treated tumors taken off study (%) (HT1080 xenografts; Study 24a, 10 mg/kg QD, Day 11, Compound 1205 column): 76%** | Final mean terminal tumor size in treatment group (mm^3) (HT1080 xenografts; Study 24a, 10 mg/kg QD, administered 30 days): 1400 mm^3 | Difference vs. vehicle in median number of days to reach 1000 mm^3, (HT1080 xenografts; Study 24b, 0.3 mg/kg QD): 0.7 days | Mean difference in tumor growth rate at the Day that the vehicle-treated tumors taken off study (%) (HT1080 xenografts; Study 24b, 0.3 mg/kg QD, Day 15): 28% | Final mean terminal tumor size in treatment group (mm^3) (HT1080 xenografts; Study 24b, 0.3 mg/kg QD, administered 16 days): 1540 mm^3 | Growth of HT1080 tumors in vivo (FIG. 4) (HT1080 xenografts; study #24a, 10 mg/kg QD, in words): significantly delayed growth of HT1080 tumor cells in vivo | Cell cycle distribution (relative DNA content, FIG. 5) (HT1080 cells): induced a redistribution of the cycling characteristics of the cell population | Murine kidney VEGF levels (FIG. 6) (murine kidney VEGF): did not significantly decrease murine kidney VEGF levels | Bioavailability [3]: bioavailable in vivo | solubility (Solubility in water): ~1 µg/mL (≈ 1.85 µM)
